Biological target: PDE5 (Homo sapiens (Human), UniProt O76074)
Assay: PDE5 inhibition assay (BPS PDE assay kit, fluorescence polarization)
Assay type: biochemical
Conditions: Table 1; 100 nM FAM-cGMP
Experimental: Materials and Methods: PDE5 inhibition was assayed at BPS Bioscience (San Diego, Calif.) using BPS PDE assay kits (BPS Catalog number 60300, enzyme lot 090810). Test compounds were supplied as liquid solutions of 10 mM concentration in DMSO. Sildenafil, used as a standard was dissolved in DMSO. Intermediate dilutions were 10% DMSO in PDE assay buffer and tests at ranges from 0.1 to 100 nM. 0.1 ng of enzyme was used per reaction, and the substrate was 100 nM FAM-cGMP.
Assay conditions: A series of dilutions of the test compounds were prepared with 10% DMSO in assay buffer and 5 μl of the dilution was added to a 50 μl reaction so that the final concentration of DMSO is 1% in all of reactions. The enzymatic reactions were conducted at room temperature for 60 minutes in a 50 μl mixture containing PDE assay buffer, 100 nM FAM-cAMP or 100 nM FAM-cGMP, a PDE enzyme, and the test compound. After the enzymatic reaction, 100 μl of a binding solution (1:100 dilution of the binding agent with the binding agent diluent) was added to each reaction and the reaction was performed at room temperature for 60 minutes. Fluorescence intensity was measured at an excitation of 485 nm and an emission of 528 nm using a Tecan Infinite M1000 microplate reader.
Data analysis: PDE activity assays were performed in duplicate at each concentration. Fluorescence intensity is converted to fluorescence polarization using the Tecan Magellan6 software. The fluorescence polarization data were analyzed using the computer software, Graphpad Prism. The fluorescence polarization (FPt) in absence of the compound in each data set was defined as 100% activity. In the absence of PDE and the compound, the value of fluorescent polarization (FPb) in each data set was defined as 0% activity. The percent activity in the presence of the compound was calculated according to the following equation: % activity=(FP−FPb)/(FPt−FPb)×100%, where FP=the fluorescence polarization in the presence of the compound.
The values of % activity versus a series of compound concentrations were then plotted using non-linear regression analysis of Sigmoidal dose-response curve generated with the equation Y=B+(T−B)/1+10^((LogEC50-X)×Hill Slope), where Y=percent activity, B=minimum percent activity, T=maximum percent activity, X=logarithm of compound and Hill Slope=slope factor or Hill coefficient. The IC50 value was determined by the concentration causing a half-maximal percent activity.

For `COc1ccc(CNc2c3c(nc4ccc(C#N)cc24)CCN(C(C)=O)C3)cc1Cl` [Compound H, 2-acetyl-10-[(3-chloro-4-methoxybenzyl)amino]-1,2,3,4-tetrahydrobenzo[b][1,6]naphthyridine-8-carbonitrile], the IC50 was 0.056 nM.
